The assay in a line: Inhibition of LFA-1/ICAM-1 interaction in mouse Lim51b cells assessed as PMA-induced adhesion to ICAM-1 expressing HSE cells measured per 10^5 cells after 30 mins by fluorometric microplate reader analysis.

As to `CC[C@H](C)[C@H](OCc1ccccc1)[C@H]1[C@H]([N+](=O)[O-])[C@H](c2ccccc2)N[C@]1(C)C(=O)NCCC(=O)O`, the half-maximal inhibitory concentration (IC50) was found to be 27.6 µM.

Values taken from BindingDB's records for doi:10.1021/jm3016848 (Ikerchem, 2013).
